The subject of one experiment is HDMEC cells. The experiment is described as follows: Detachment effect on HDMEC endothelial cells. The format is cell-based, Human. The following applies: 1 μM, treatment for two hours.
Text: A test to determine the detachment of endothelial cells was established in order to select the products on the basis of their “in vitro” activity. This test for determining the endothelial cell detachment is characterized in that the endothelial cells, inoculated in plates which are coated at the bottom with a binder, e.g., chosen from gelatin, fibronectin or vitronectin, after culturing, are supplemented with a medium containing the test compound, and the cells are then labeled with a fluorescent substance, the cells which become detached are removed by washing and the fluorescence of the remaining cells is counted in a fluorimeter.
This test consists in measuring the detachment of endothelial cells cultured on substrates based on a binder, e.g., chosen from fibronectin, vitronectin and gelatin. One day after inoculating the cells in plates containing 96 wells, for example, the culture medium is replaced with a medium containing the test compound in the absence of serum. The same preparation is prepared six times at three different concentrations ([…]) and the control without addition of antivascular product is prepared six times. After treatment for two hours with the test substance, the cells are labeled with calcein-AM (1.6 μg/ml) in a culture medium supplemented with 0.1% BSA. The cells which become detached are removed by washing with the culture medium containing 0.1% bovine serum albumin; 100 μl of medium are added to each well. The fluorescence of the remaining cells is counted in a fluorimeter. The data obtained are expressed relative to the control (untreated cells).
(§1) The assessment of the detachment of the endothelial cells in vitro is determined in the following way. HDMEC cells (Human Dermal Microvascular Endothelial Cells, Promocell, c-122102) are cultured in an ECGM-MV medium containing 5% fetal calf serum, growth factors (EGF 10 ng/ml, hydrocortisone 1 μg/ml, 0.4% growth supplement with heparin) and antibiotics (amphotericin 50 ng/ml, gentamicin 50 μg/ml). For the detachment test, the HDMECs are inoculated at a rate of 5 000 cells in clear-bottomed 96-well plates (Costar) precoated with fibronectin (10 μg/ml) or vitronectin (1 μg/ml) or gelatin. Twenty-four hours later, the culture medium is replaced with 0.1% BSA ECGM-MV medium containing the indicated products. The test concentrations are 0.1-0.3 and 1 μM for each product. After treatment for two hours, the cells are labeled for 1 hour with calcein (1.6 μg/ml, Molecular Probes) in 0.1% BSA ECGM-MV medium. The detached cells are then removed by washing with 0.1% BSA ECGM-MV medium; 100 μl of medium are added to each well. The fluorescence of the cells which remain attached to the substratum of the well is counted using a fluorimeter, Spectrafluor Plus (Tecan, excitation at 485 nm, and emission at 535 nm). The data are the average of six different samples and are expressed as a percentage of the control (untreated cells).
A cell detachment effect of greater than or equal to 15% is considered as significant.
as §1, with “(amphotericine” for “(amphotericin”, “The detached cells are then removed by washing with 0.1% BSA ECGM-MV medium; 100 μl of medium are added to each well. The fluorescence of the cells which remain attached to the substratum of the well is counted using a fluorimeter, Spectrafluor Plus (Tecan, excitation at 485 nm, and emission at 535 nm). The data are the average of six different samples and are expressed as a percentage of the control (untreated cells).” left out

Another experiment has as its system HDMEC. Kind of experiment: Inhibition of cell proliferation, HDMEC. The format is cell-based. The following applies: Homo sapiens.
The next experiment relates to HeLa cells. Kind of experiment: Inhibition of proliferation of HeLa cells ([14C]-thymidine incorporation). The format is cell-based. The following applies: Homo sapiens, incubation for 48 hours, read-out: Inhibition of cell proliferation IC50 HeLa. As to the method: The proliferation of HeLa cells is assessed by measuring the incorporation of [^14C]-thymidine in the following way. The HeLa cells (epithelial tumor cells of human origin) are cultured in a DMEM medium (Gibco) which contains 10% fetal calf serum and antibiotics (1% penicillin, 1% streptomycin). To carry out the proliferation test, the cells are inoculated into 96-well cytostar microplates (Amersham), at a rate of 5 000 cells per well. [^14C]-thymidine (0.1 μCi/well) and the products to be assessed are then added. Variable concentrations of products up to 10 μM are used; the DMSO (solvent used to dissolve the products) should not exceed 0.5% in the medium. After incubation for 48 hours at 37° C., the radioactivity incorporated into the cells is measured by counting the plate in a TRI-LUX counter (Wallac). The IC50 value is defined as the concentration of product which reduces the radioactivity by 50% relative to an untreated control. A product whose IC50 value is less than 1 μM is considered as cytotoxic.
On the technique in general: Dividing cells build labelled thymidine or BrdU into new DNA.

The next experiment addresses T1, Tubulin (Sus scrofa, UniProt P02550+P02554).
T1 construct: Tubulin is purified from pig brains according to the published methods; from tissue; host or cells: pig brain
The experiment is described as follows: Assessment of the inhibition of tubulin polymerization (turbidimetry). The format is biochemical, pig. Particulars: tubulin 10 μM, turbidity at 350 nm, 37° C. As to the method:
Tubulin is purified from pig brains according to the published methods (Shelanski et al., 1973, Proc. Natl, Acad. Sci. USA, 70, 765-768. Weingarten et al., 1975, Proc. Natl, Acad. Sci. USA, 72, 1858-1862). Briefly, the brains are ground and centrifuged in an extraction buffer. The tubulin, contained in the extract supernatant, is subjected to two successive cycles of polymerization at 37° C. and depolymerization at 4° C., before being separated from the MAPs (Microtubule Associated Proteins) by chromatography on a phosphocellulose P11 column (Whatman). The tubulin thus isolated is more than 95% pure. It is stored in a buffer known as RB/2 30% glycerol, the composition of which is MES-NaOH [2-(N-morpholino)ethanesulfonic acid] 50 mM, pH 6.8; MgCl2 0.25 mM; EGTA 0.5 mM; 30% glycerol (v/v), GTP (guanosine 5′-triphosphate) 0.2 mM.
The polymerization of the tubulin into microtubules is monitored by turbidimetry as follows; the tubulin is adjusted to a concentration of 10 μM (1 mg/ml) in the RB/2 30% glycerol buffer, to which is added 1 mM GTP and 6 mM MgCl2. The polymerization is initiated by increasing the temperature from 6° C. to 37° C. in a cuvette with a 1 cm optical pathlength, placed in a Uvikon 931 spectrophotometer (Kontron) equipped with a thermostatically-regulated cuvette holder. The increase in the turbidity of the solution is monitored at 350 nm.
The products are dissolved at 10 mM in DMSO and added at variable concentrations (0.5 to 10 μM) to the tubulin solution before polymerization. The IC50 value is defined as the concentration of product which inhibits 50% of the rate of polymerization. A product whose IC50 value is less than or equal to 3 μM is considered as very active.

Counter-ions that a name gives are not always drawn.

T1 sequence (P02550 whole entry): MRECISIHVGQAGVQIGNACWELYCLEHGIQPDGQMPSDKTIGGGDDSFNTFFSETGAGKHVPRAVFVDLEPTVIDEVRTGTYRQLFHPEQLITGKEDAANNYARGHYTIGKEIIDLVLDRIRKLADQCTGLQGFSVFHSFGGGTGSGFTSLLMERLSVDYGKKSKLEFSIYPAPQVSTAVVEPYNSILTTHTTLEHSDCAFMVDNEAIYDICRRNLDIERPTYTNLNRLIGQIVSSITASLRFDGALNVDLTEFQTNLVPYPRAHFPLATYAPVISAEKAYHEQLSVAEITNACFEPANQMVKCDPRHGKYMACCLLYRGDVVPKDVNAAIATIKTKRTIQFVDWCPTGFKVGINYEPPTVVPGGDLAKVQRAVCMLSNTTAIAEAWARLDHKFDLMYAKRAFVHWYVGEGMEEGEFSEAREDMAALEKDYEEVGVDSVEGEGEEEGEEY
T1 sequence (P02554 whole entry): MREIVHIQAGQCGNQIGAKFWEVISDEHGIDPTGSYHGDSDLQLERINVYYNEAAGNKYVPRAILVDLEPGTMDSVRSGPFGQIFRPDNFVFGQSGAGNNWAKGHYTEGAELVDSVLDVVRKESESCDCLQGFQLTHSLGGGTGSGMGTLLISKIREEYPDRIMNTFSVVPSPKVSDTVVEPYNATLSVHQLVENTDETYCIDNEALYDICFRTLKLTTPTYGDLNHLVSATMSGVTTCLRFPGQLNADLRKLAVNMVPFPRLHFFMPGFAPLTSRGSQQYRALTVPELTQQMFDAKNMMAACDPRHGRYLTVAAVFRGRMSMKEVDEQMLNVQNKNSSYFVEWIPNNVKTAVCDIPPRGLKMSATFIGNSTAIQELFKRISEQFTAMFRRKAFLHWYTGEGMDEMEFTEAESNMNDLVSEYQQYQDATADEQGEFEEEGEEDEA

On to `COc1cc(C(=O)/C(C)=C/c2ccc3c(ccn3C)c2)cc(OC)c1OC` [Example 5, E-2-Methyl-3-(1-methyl-1-H-indol-5-yl)-1-(3,4,5-trimethoxyphenyl)propenone], for which the “Percentage of detachment of HDMEC cells induced with the compound at a concentration of 1 μM” value with HDMEC cells is given as 32%. In addition, the IC50 with HDMEC was 30 nM; in the experiment on HeLa cells, 5 to 10 nM; against Tubulin, 700 nM.
With `COc1ccc(/C=C(\C)C(=O)c2cc(OC)c(OC)c(OC)c2)cc1NC(=O)[C@@H](N)CO` [Example 13, (S)-2-Amino-3-hydroxypropanoic acid {2-methoxy-5-[2-methyl-3-oxo-3-(3,4,5-trimethoxyphenyl)propenyl]phenyl}amide hydrochloride], the “Percentage of detachment of HDMEC cells induced with the compound at a concentration of 1 μM” value with HDMEC cells was found to be 31%. Moreover, the IC50 in the experiment on HDMEC stood at 30 nM; in the experiment with HeLa cells, 100 nM; at Tubulin, 10000 nM.
